The text below walks through data of ChEMBL document CHEMBL1141941, “Biaryl diamides as potent melanin concentrating hormone receptor 1 antagonists” (Bioorg Med Chem Lett, 2005).

The target of assay [1] is Melanin-concentrating hormone receptor 2 (Homo sapiens, UniProt Q969V1). As to the kind of experiment: Antagonist activity against human MCH2 receptor. Format: functional.
In assay [2] the target is Melanin-concentrating hormone receptor 1 (Homo sapiens, UniProt Q99705). As to the kind of experiment: Antagonist activity against human MCH1 receptor. Format: functional.

Usually Ki stands for the dissociation constant of the complex between target and ligand, obtained from inhibition or displacement.

Bounds are passed on as bounds.

Melanin-concentrating hormone receptor 1, sequence (Q99705 whole entry): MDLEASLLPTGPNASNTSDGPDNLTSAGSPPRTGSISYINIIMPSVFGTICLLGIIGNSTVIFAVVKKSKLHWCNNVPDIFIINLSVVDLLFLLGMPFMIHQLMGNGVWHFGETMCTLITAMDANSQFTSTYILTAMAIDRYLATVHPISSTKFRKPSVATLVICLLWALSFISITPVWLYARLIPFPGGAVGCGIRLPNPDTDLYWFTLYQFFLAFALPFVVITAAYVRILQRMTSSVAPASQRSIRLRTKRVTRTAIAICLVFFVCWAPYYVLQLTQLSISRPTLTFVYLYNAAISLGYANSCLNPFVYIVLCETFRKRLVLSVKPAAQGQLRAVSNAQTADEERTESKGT
Melanin-concentrating hormone receptor 2, sequence (Q969V1 whole entry): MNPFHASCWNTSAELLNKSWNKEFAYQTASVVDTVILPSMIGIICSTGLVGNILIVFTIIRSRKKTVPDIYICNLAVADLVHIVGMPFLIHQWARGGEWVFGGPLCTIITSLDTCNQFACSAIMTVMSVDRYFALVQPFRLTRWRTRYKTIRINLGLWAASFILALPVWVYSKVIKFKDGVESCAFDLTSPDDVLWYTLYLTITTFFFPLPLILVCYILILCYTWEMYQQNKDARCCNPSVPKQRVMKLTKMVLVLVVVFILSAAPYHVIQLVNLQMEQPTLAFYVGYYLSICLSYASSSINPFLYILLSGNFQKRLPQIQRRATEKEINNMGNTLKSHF

In the case of `N#Cc1cccc(-c2ccc(CCN(CC(=O)Nc3cc(Cl)cc(Cl)c3)C(=O)CCN3CC[C@@H](O)C3)cc2)c1`, the Ki in assay [1] is over 3000 nM.
With `C[C@H](c1ccc(-c2cccc(C#N)c2)cc1)N(CC(=O)Nc1cc(Cl)cc(Cl)c1)C(=O)CN1CC[C@H](O)C1`, the inhibitory constant (Ki) in assay [2] is 31 nM; in assay [1] it was over 3000 nM.
The matching figures for `C[C@H](c1ccc(-c2cccc(C#N)c2)cc1)N(CC(=O)Nc1cc(Cl)cc(Cl)c1)C(=O)CCCN1CC[C@H](O)C1`: 76 nM and over 3000 nM.
Consider `CC(C)(c1ccc(-c2cccc(C#N)c2)cc1)N(CC(=O)Nc1cc(Cl)cc(Cl)c1)C(=O)CN1CCCC1`, for which the Ki is 131 nM in assay [2] and over 3000 nM in assay [1].
In assay [1], `N#Cc1cccc(-c2ccc(CN(CC(=O)Nc3cc(Cl)cc(Cl)c3)C(=O)CN3CC[C@H](O)C3)cc2)c1` had a Ki of over 3000 nM.
On to `N#Cc1cccc(-c2ccc(CN(CCCN3CCCC3)C(=O)Nc3ccc(F)c(C(F)(F)F)c3)cc2)c1`, for which the Ki in assay [2] was 70 nM; in assay [1], over 3000 nM.
In turn, `N#Cc1cccc(-c2ccc(CCN(CC(=O)Nc3cc(Cl)cc(Cl)c3)C(=O)CN3CC[C@H](O)C3)cc2)c1` returned an inhibition constant Ki in assay [1] of over 3000 nM.
Take `C[C@@H](c1ccc(-c2cccc(C#N)c2)cc1)N(CC(=O)Nc1cc(Cl)cc(Cl)c1)C(=O)CN1CC[C@H](O)C1`: the inhibitory constant (Ki) in assay [2] is 16 nM; in assay [1], over 3000 nM.
In assay [1], `CC(=O)N[C@@H]1CCN(CC(=O)N(CCc2ccc(-c3cccc(C#N)c3)cc2)CC(=O)Nc2cc(Cl)cc(Cl)c2)C1` showed a Ki of over 3000 nM.
For the compound `N#Cc1cccc(-c2ccc(CN(CCCN3CCCC3)C(=O)Nc3ccc(F)c(Cl)c3)cc2)c1`, the figures for the Ki in assay [2] and in assay [1] were 48 nM and over 3000 nM, respectively.
As to `N#Cc1cccc(-c2ccc(CCN(CC(=O)Nc3cc(Cl)cc(Cl)c3)C(=O)CCN3CC[C@H](O)C3)cc2)c1`, the Ki in assay [1] was over 3000 nM.
Regarding `N#Cc1cccc(-c2ccc(CN(CCCN3CCCC3)C(=O)Nc3cc(Cl)cc(Cl)c3)cc2)c1`, the values for the Ki in assay [2] and in assay [1] were 48 nM and over 3000 nM, respectively.
As to `C[C@H](c1ccc(-c2cccc(C#N)c2)cc1)N(CC(=O)Nc1cc(Cl)cc(Cl)c1)C(=O)CCN1CC[C@H](O)C1`, the results for the inhibitory constant (Ki) in assay [2] and in assay [1] were 23 nM and over 3000 nM, respectively.
For `C[C@@H](c1ccc(-c2cccc(C#N)c2)cc1)N(CC(=O)Nc1cc(Cl)cc(Cl)c1)C(=O)CCN1CC[C@H](O)C1` the same measures were 18 nM and over 3000 nM.
On to `N#Cc1cccc(-c2ccc(CN(CC(=O)Nc3cc(Cl)cc(Cl)c3)C(=O)CN3CCCC3)cc2)c1`, for which the Ki in assay [1] is over 3000 nM.
Same read-out and setting: with `N#Cc1cccc(-c2ccc(CN(CC(=O)Nc3cc(Cl)cc(Cl)c3)C(=O)CCN3CCCC3)cc2)c1` the figure was over 3000 nM.
In the case of `N#Cc1cccc(-c2ccc(CN(CCN3CCCC3)C(=O)Nc3ccc(F)c(Cl)c3)cc2)c1`, the Ki in assay [2] was 287 nM; in assay [1], over 3000 nM.
As to `N#Cc1cccc(-c2ccc(CCN(CC(=O)Nc3cc(Cl)cc(Cl)c3)C(=O)CCN3CCCC3)cc2)c1`, the Ki in assay [1] was over 3000 nM.
On the same count and under the same terms, with `N#Cc1cccc(-c2ccc(CN(CC(=O)Nc3cc(Cl)cc(Cl)c3)C(=O)CN3CC[C@@H](O)C3)cc2)c1` the figure was over 3000 nM; with `N#Cc1cccc(-c2ccc(CCN(CC(=O)Nc3cc(Cl)cc(Cl)c3)C(=O)CN3CCCC3)cc2)c1`, over 3000 nM.
`N#Cc1cccc(-c2ccc(CN(CCN3CCCC3)C(=O)Nc3ccc(F)c(C(F)(F)F)c3)cc2)c1`: the results for the Ki in assay [2] and in assay [1] were 159 nM and over 3000 nM, respectively.
For the compound `N#Cc1cccc(-c2ccc(CN(CCN3CCCC3)C(=O)Nc3cc(Cl)cc(Cl)c3)cc2)c1`, the inhibition constant Ki is 151 nM in assay [2] and over 3000 nM in assay [1].
In assay [1], `N#Cc1cccc(-c2ccc(CCN(CC(=O)Nc3cc(Cl)cc(Cl)c3)C(=O)CN3CC[C@@H](O)C3)cc2)c1` came in with an inhibition constant Ki of over 3000 nM.
